Measured values: patent US6734198B1, “Nematicidal trifluorobutenes” (Nihon Bayer Agrochem K.K., priority 1999, dated 2004)

These compounds were tested on Meloidogyne incognita (assay: Test against Meloidogyne spp., soil pot test (tomato)). Details: 10 ppm active ingredient in soil contaminated with Meloidogyne incognita; tomato (Kurihara) in pots, greenhouse, 4 weeks; from root knot index.
Type: in vivo
Description: Test Against Meloidogyne spp. Soil pot Test
Preparation of Test Agent:
1 Part of the active compound is impregnated to 99 parts of pumice to obtain fine granules.
The test agent prepared as mentioned above was added to soil contaminated with Meloidogyne incognita to a chemical concentration of 10 ppm and homogeneously mixed by stirring. A pot (1/5000 are) was filled with the soil. About 20 seeds of tomato (variety: Kurihara) were sown per pot. After cultivation in a greenhouse for 4 weeks, they were carefully pulled out not to damage the roots and the root knot index and the controlling effect were determined as follows.
Degree of damage 0: No knots were formed (Complete control).
1: A few knots were formed.
2: Knots were formed to a medium extent.
3: Knots were formed to an intense extent.
4: Knots were formed to the most intense extent (which corresponds to non-treatment). [formula]
The controlling effect of the compounds tested can then be evaluated according to the following equation: [formula]
The evaluation of the controlling effects of the compounds according to the present invention was done on the basis of the values of the controlling effect which can be obtained in the above-mentioned way and were connected with the following standards:
a: Controlling effect 100-71%
b: Controlling effect 70-50%
c: Controlling effect less than 50%

| Compound | Evaluation of controlling effect |
| --- | --- |
| FC(F)=C(F)CCSc1ncc(Cl)s1 [Example 1, 5-chloro-2-(3,4,4-trifluoro-3-butenylthio)thiazole] | a (Controlling effect 100-71%) |
| [O-][S+](CCC(F)=C(F)F)c1ncc(Cl)s1 (stereo not drawn) [Example 2, 5-chloro-2-(3,4,4-trifluoro-3-butenylsulfinyl)thiazole] | a (Controlling effect 100-71%) |
| O=S(=O)(CCC(F)=C(F)F)c1ncc(Cl)s1 [Example 3, 5-chloro-2-(3,4,4-trifluoro-3-butenylsulfonyl)thiazole] | a (Controlling effect 100-71%) |
